Tests used:
[1] = tested on: MCF-7 cells; experiment: Breast cancer cell viability assay (CellTiter-Glo, 5 days); assay type: cell-based; settings: 5 days' compound exposure; for IC50: Homo sapiens, MCF7, 120 h
Procedure, shortened: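 Eleven-point semilog compound series, final 0.3-0.000003 μM, added to overnight-adhered MCF-7 cells (320/well; RPMI, 10% FBS, 20 mM HEPES) for 5 days. Viability read by CellTiter-Glo luminescence, background from medium without cells subtracted, expressed relative to untreated cells.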

[2] = target: T1, ER-α in MCF-7 cells (Homo sapiens, UniProt P03372); experiment: Breast cancer cell ER-α in cell western assay (SP1); assay type: cell-based; set-up: endogenous in cells; host or cells: MCF-7; settings: 4 or 24 hr post compound addition; for Emax: MCF7, SP1 antibody, read-out: ER-α In Cell Western Assay (SP1) Max Response; for DC50: SP1 antibody, read-out: ER-α In Cell Western Assay (SP1) IC50
T1 sequence (P03372 1-595): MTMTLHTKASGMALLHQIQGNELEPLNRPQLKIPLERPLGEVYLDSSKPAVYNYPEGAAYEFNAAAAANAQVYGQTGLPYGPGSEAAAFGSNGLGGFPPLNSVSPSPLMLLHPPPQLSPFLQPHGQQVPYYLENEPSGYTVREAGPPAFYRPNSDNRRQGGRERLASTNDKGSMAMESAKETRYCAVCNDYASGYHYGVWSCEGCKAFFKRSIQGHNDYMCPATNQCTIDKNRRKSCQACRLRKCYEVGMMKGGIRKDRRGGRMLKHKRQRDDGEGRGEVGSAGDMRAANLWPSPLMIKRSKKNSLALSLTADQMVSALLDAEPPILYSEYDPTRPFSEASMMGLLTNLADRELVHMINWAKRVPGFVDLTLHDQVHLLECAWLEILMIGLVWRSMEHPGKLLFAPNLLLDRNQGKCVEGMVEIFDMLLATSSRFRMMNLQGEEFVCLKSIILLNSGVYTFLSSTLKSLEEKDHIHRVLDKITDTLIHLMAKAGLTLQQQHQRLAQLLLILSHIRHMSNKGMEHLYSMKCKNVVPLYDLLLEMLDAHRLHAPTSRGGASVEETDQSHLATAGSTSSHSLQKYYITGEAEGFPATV
Procedure, shortened: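 ER-α protein levels were measured in MCF-7 cells after 4 or 24 hr compound exposure (final 0.3–0.000003 μM) in RPMI containing 10% charcoal-stripped FBS.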

IC50 [1]	Emax [2]	DC50 [2]	SMILES	MCF7 Viability Assay Max Response [1]
> 100 nM	≥ 40%	≤ 100 nM	CC/C(=C(/c1ccc(/C=C/C(=O)O)cc1)c1ccc2[nH]ncc2c1)c1ccc(-c2cnsc2)cc1 [Compound 395, (E)-3-(4-((E)-1-(1H-Indazol-5-yl)-2-(4-(isothiazol-4-yl)phenyl)but-1-en-1-yl)phenyl)acrylic acid]	++ (++ = a single % value ≧ 40%)
> 100 nM	≥ 40%	> 100 nM	CC/C(=C(/c1ccc(/C=C/C(=O)O)cc1)c1ccc2[nH]ncc2c1)c1ccc(N(C)c2ccccc2)cc1 [Compound 396, (E)-3-(4-((E)-1-(1H-Indazol-5-yl)-2-(4-(methyl(phenyl)amino)phenyl)but-1-en-1-yl)phenyl)acrylic acid & (E)-3-(4-((Z)-1-(1H-indazol-5-yl)-2-(4-(methyl(phenyl)amino)phenyl)but-1-en-1-yl)phenyl)acrylic acid (1:1 Mixture)]	++ (++ = a single % value ≧ 40%)
≤ 100 nM	≥ 40%	≤ 100 nM	CC/C(=C(/c1ccc(/C=C/C(=O)O)cc1)c1ccc2[nH]ncc2c1)c1ccc(Nc2ccccc2)cc1 [Compound 397, (E)-3-(4-((E)-1-(1H-Indazol-5-yl)-2-(4-(phenylamino)phenyl)but-1-en-1-yl)phenyl)acrylic acid]	++ (++ = a single % value ≧ 40%)
≤ 100 nM	≥ 40%	≤ 100 nM	CC/C(=C(/c1ccc(/C=C/C(=O)O)cc1)c1ccc2nn(C(F)F)cc2c1)c1ccc(F)cc1Cl [Compound 402, (E)-3-(4-((E)-2-(2-Chloro-4-fluorophenyl)-1-(2-(difluoromethyl)-2H-indazol-5-yl)but-1-en-1-yl)phenyl)acrylic acid]	++ (++ = a single % value ≧ 40%)
≤ 100 nM	≥ 40%	≤ 100 nM	CC/C(=C(/c1ccc(/C=C/C(=O)O)cc1)c1ccc2c(cnn2C(C)=O)c1)c1ccc(F)cc1Cl [Compound 403, (E)-3-(4-((E)-1-(1-Acetyl-1H-indazol-5-yl)-2-(2-chloro-4-fluorophenyl)but-1-en-1-yl)phenyl)acrylic acid]	++ (++ = a single % value ≧ 40%)
≤ 100 nM	≥ 40%	≤ 100 nM	CC/C(=C(/c1ccc(/C=C/C(=O)O)cc1)c1ccc2c(cnn2C(=O)C(C)C)c1)c1ccc(F)cc1Cl [Compound 404, (E)-3-(4-((E)-2-(2-Chloro-4-fluorophenyl)-1-(1-isobutyryl-1H-indazol-5-yl)but-1-en-1-yl)phenyl)acrylic acid]	++ (++ = a single % value ≧ 40%)
≤ 100 nM	≥ 40%	≤ 100 nM	CC/C(=C(/c1ccc(/C=C/C(=O)O)cc1)c1ccc2c(cnn2C(=O)C(C)(C)C)c1)c1ccc(F)cc1Cl [Compound 405, (E)-3-(4-((E)-2-(2-Chloro-4-fluorophenyl)-1-(1-pivaloyl-1H-indazol-5-yl)but-1-en-1-yl)phenyl)acrylic acid]	++ (++ = a single % value ≧ 40%)
≤ 100 nM	≥ 40%	≤ 100 nM	CCOC(=O)n1ncc2cc(/C(=C(\CC)c3ccc(F)cc3Cl)c3ccc(/C=C/C(=O)O)cc3)ccc21 [Compound 406, (E)-3-(4-((E)-2-(2-Chloro-4-fluorophenyl)-1-(1-(ethoxycarbonyl)-1H-indazol-5-yl)but-1-en-1-yl)phenyl)acrylic acid]	++ (++ = a single % value ≧ 40%)
≤ 100 nM	≥ 40%	≤ 100 nM	CC/C(=C(/c1ccc(/C=C/C(=O)NS(C)(=O)=O)cc1)c1ccc2[nH]ncc2c1)c1ccc(F)cc1Cl [Compound 408, (E)-3-(4-((E)-2-(2-Chloro-4-fluorophenyl)-1-(1H-indazol-5-yl)but-1-en-1-yl)phenyl)-N-(methylsulfonyl)acrylamide]	++ (++ = a single % value ≧ 40%)

Reference: US9399646B2 (Genentech, Inc., priority 2010, dated 2016)
